In ChEMBL document CHEMBL4699579, “A Peptidyl Inhibitor that Blocks Calcineurin-NFAT Interaction and Prevents Acute Lung Injury” (J Med Chem, 2020):
The source made the active and inactive calls. The calls are words filed in the database; no cut-off is given here. Positions of bridges follow the written chain, without caps; N, C: chain ends. Non-standard residues stand in square brackets, D forms with d. Residues, ends and D or L forms follow the SMILES beside them. Chains are numbered I, II in the order given. *: point of attachment. Benzoyl(2,3-Cl2) = O=C(c1cccc(Cl)c1Cl)*; 2Nal = N[C@@H](Cc1ccc2ccccc2c1)C(=O)O; Tle = CC(C)(C)[C@H](N)C(=O)O; AEEA = NCCOCCOCC(=O)O

Columns and labels:
[1] = tested on: Mus musculus; experiment: Anti-inflammatory activity in BALB/c mouse model of LPS-induced ALI assessed as reduction in LPS-induced IL6 in plasma at 10 mg/kg dosed via intranasal insuffIation pre-treated 2 hrs before LPS stimulation for 16 hrs; format: functional, organism-based; details: time 18.0 hrs
[2] = tested on: Mus musculus; experiment: Anti-inflammatory activity in BALB/c mouse model of LPS-induced ALI assessed as reduction in LPS-induced extravasated BALF protein in BALF at 10 mg/kg dosed via intranasal insuffIation pre-treated 2 hrs before LPS stimulation for 16 hrs; format: functional, organism-based; details: time 18.0 hrs
[3] = tested on: Mus musculus; experiment: Anti-inflammatory activity in BALB/c mouse model of LPS-induced ALI assessed as reduction in number of neutrophils BALF at 5 mg/kg dosed via intranasal insuffIation pre-treated 2 hrs before LPS stimulation for 16 hrs; format: functional, organism-based; details: dose mg/kg 5-10, time 18.0 hrs
[4] = tested on: Macrophage; experiment: Inhibition of calcineurin-NFATc3 interaction in mouse lung macrophages assessed as reduction in LPS-induced TNFalpha production at 0.01 to 10 uM pre-incubated 4 hrs before LPS stimulation for 8 hrs by ELISA; format: tissue-based; details: dose microM 0.01-10, time 12.0 hrs
[5] = tested on: Mus musculus; experiment: Anti-inflammatory activity in BALB/c mouse model of LPS-induced ALI assessed as reduction in LPS-induced IL6 in plasma at 5 mg/kg dosed via intranasal insuffIation pre-treated 2 hrs before LPS stimulation for 16 hrs; format: functional, organism-based; details: dose mg/kg 5-10, time 18.0 hrs
[6] = tested on: Mus musculus; experiment: Anti-inflammatory activity in BALB/c mouse model of LPS-induced ALI assessed as reduction in LPS-induced IL6 in BALF at 10 mg/kg dosed via intranasal insuffIation pre-treated 2 hrs before LPS stimulation for 16 hrs; format: functional, organism-based; details: time 18.0 hrs
[7] = tested on: Mus musculus; experiment: Anti-inflammatory activity in BALB/c mouse model of LPS-induced ALI assessed as reduction in LPS-induced extravasated BALF protein in BALF at 5 mg/kg dosed via intranasal insuffIation pre-treated 2 hrs before LPS stimulation for 16 hrs; format: functional, organism-based; details: dose mg/kg 5-10, time 18.0 hrs
[8] = tested on: Mus musculus; experiment: Anti-inflammatory activity in BALB/c mouse model of LPS-induced ALI assessed as reduction in LPS-induced TNFalpha in BALF at 10 mg/kg dosed via intranasal insuffIation pre-treated 2 hrs before LPS stimulation for 16 hrs; format: functional, organism-based; details: time 18.0 hrs
[9] = tested on: Mus musculus; experiment: Anti-inflammatory activity in BALB/c mouse model of LPS-induced ALI assessed as reduction in lung wet-to-dry ratios at 5 mg/kg dosed via intranasal insuffIation pre-treated 2 hrs before LPS stimulation for 16 hrs; format: functional, organism-based; details: dose mg/kg 5-10, time 18.0 hrs
[10] = tested on: Mus musculus; experiment: Anti-inflammatory activity in BALB/c mouse model of LPS-induced ALI assessed as reduction in LPS-induced TNFalpha in plasma at 10 mg/kg dosed via intranasal insuffIation pre-treated 2 hrs before LPS stimulation for 16 hrs; format: functional, organism-based; details: time 18.0 hrs
[11] = tested on: Macrophage; experiment: Inhibition of calcineurin-NFATc3 interaction in mouse lung macrophages assessed as reduction in LPS-induced IL6 production at 0.01 to 10 uM pre-incubated 4 hrs before LPS stimulation for 8 hrs by ELISA; format: tissue-based; details: dose microM 0.01-10, time 12.0 hrs
[12] = Toxicity in mouse lung macrophages cells assessed as reduction in cell viability up to 25 uM incubated for 72 hrs by MTT assay; format: tissue-based; details: macrophage
[13] = tested on: Mus musculus; experiment: Anti-inflammatory activity in BALB/c mouse model of LPS-induced ALI assessed as reduction in LPS-induced IL6 in BALF at 5 mg/kg dosed via intranasal insuffIation pre-treated 2 hrs before LPS stimulation for 16 hrs; format: functional, organism-based; details: dose mg/kg 5-10, time 18.0 hrs
[14] = tested on: HeLa; experiment: Toxicity in human HeLa cells assessed as reduction in cell viability up to 25 uM incubated for 72 hrs by MTT assay; format: cell-based
[15] = tested on: Mus musculus; experiment: Anti-inflammatory activity in BALB/c mouse model of LPS-induced ALI assessed as reduction in lung wet-to-dry ratios at 10 mg/kg dosed via intranasal insuffIation pre-treated 2 hrs before LPS stimulation for 16 hrs; format: functional, organism-based; details: time 18.0 hrs
[16] = Half life in human serum; format: ADME, cell-free
[17] = tested on: Mus musculus; experiment: Anti-inflammatory activity in BALB/c mouse model of LPS-induced ALI assessed as reduction in LPS-induced TNFalpha in BALF at 5 mg/kg dosed via intranasal insuffIation pre-treated 2 hrs before LPS stimulation for 16 hrs; format: functional, organism-based; details: dose mg/kg 5-10, time 18.0 hrs
[18] = tested on: Mus musculus; experiment: Anti-inflammatory activity in BALB/c mouse model of LPS-induced ALI assessed as reduction in number of neutrophils BALF at 10 mg/kg dosed via intranasal insuffIation pre-treated 2 hrs before LPS stimulation for 16 hrs; format: functional, organism-based; details: time 18.0 hrs
[19] = tested on: Mus musculus; experiment: Anti-inflammatory activity in BALB/c mouse model of LPS-induced ALI assessed as reduction in LPS-induced TNFalpha in plasma at 5 mg/kg dosed via intranasal insuffIation pre-treated 2 hrs before LPS stimulation for 16 hrs; format: functional, organism-based; details: dose mg/kg 5-10, time 18.0 hrs
[20] = Drug uptake in cytosol in human HeLa cells assessed as cytosolic delivery efficiency at 5 uM incubated for 2 hrs by floe cytometry relative to control; format: ADME, subcellular
[21] = tested on: Jurkat; experiment: Inhibition of Calcineurin in human Jurkat cells; format: cell-based
[22] = tested on: Macrophage; experiment: Inhibition of calcineurin-NFATc3 interaction in mouse bone marrow-derived macrophages assessed as reduction in LPS-induced NFATc3 nuclear translocation at 1 uM pre-incubated before LPS stimulation for 1 hr using biotinylated compound by immunofluorescence staining assay
[23] = tested on: Macrophage; experiment: Inhibition of LPS-induced TNFalpha production in mouse lung macrophages at 10 uM pre-incubated 4 hrs before LPS stimulation for 8 hrs by ELISA; format: functional, cell-based; details: time 12.0 hrs
[24] = tested on: Macrophage; experiment: Inhibition of LPS-induced IL6 production in mouse lung macrophages at 10 uM pre-incubated 4 hrs before LPS stimulation for 8 hrs by ELISA; format: functional, cell-based; details: time 12.0 hrs

CC[C@H](C)[C@H](NC(=O)[C@@H](NC(=O)c1cccc(Cl)c1Cl)C(C)(C)C)C(=O)N[C@H](C(=O)N[C@H](C(=O)N[C@H](C(=O)N[C@@H](CCC(N)=O)C(=O)N[C@@H](Cc1c[nH]cn1)C(=O)N[C@H](CC(C)C)C(=O)N[C@@H](CO)C(=O)NCCOCCOCC(=O)N[C@@H](CCCCNC(=O)CC[C@@H]1NC(=O)[C@@H](CCCNC(=N)N)NC(=O)[C@H](CCCNC(=N)N)NC(=O)[C@@H](CCCNC(=N)N)NC(=O)[C@H](CCCNC(=N)N)NC(=O)[C@H](Cc2ccc3ccccc3c2)NC(=O)[C@@H](Cc2ccccc2)NC1=O)C(N)=O)[C@@H](C)O)[C@@H](C)CC)C(C)(C)C (I: {Benzoyl(2,3-Cl2)}-[Tle]I[Tle]ITQH[dL]S[AEEA]K-NH2 / II: cyclo([2Nal]R[dR]R[dR]E[dF]); amide I:11-II:6)
Activity [1]: inactive | Activity [2]: inactive | Activity [3]: inactive | inhibition [4]: inactive | Activity [5]: inactive | Activity [6]: inactive | Activity [7]: inactive | Activity [8]: inactive | Activity [9]: inactive | Activity [10]: inactive | inhibition [11]: inactive | Activity [12]: Non-Toxic | Activity [13]: inactive | Activity [14]: Non-Toxic | Activity [15]: inactive | half-life [16]: > 24 h | Activity [17]: inactive | Activity [18]: inactive | Activity [19]: inactive

N=C(N)NCCC[C@@H]1NC(=O)[C@H](Cc2ccc3ccccc3c2)NC(=O)[C@@H](Cc2ccccc2)NC(=O)[C@H](CCC(N)=O)NC(=O)[C@@H](CCCNC(=N)N)NC(=O)[C@H](CCCNC(=N)N)NC(=O)[C@@H](CCCNC(=N)N)NC1=O (cyclo([2Nal]R[dR]R[dR]Q[dF]))
Drug uptake [20]: 62%

CC[C@H](C)[C@H](NC(=O)[C@@H](NC(=O)c1cccc(Cl)c1Cl)C(C)(C)C)C(=O)N[C@H](C(=O)N[C@H](C(=O)N[C@H](C(=O)N[C@@H](CCC(N)=O)C(=O)N[C@@H](Cc1c[nH]cn1)C(=O)N[C@H](CC(C)C)C(=O)N[C@@H](CO)C(=O)NCCOCCOCC(=O)N[C@@H](CCCCNC(=O)CC[C@@H]1NC(=O)[C@@H](CCCNC(=N)N)NC(=O)[C@H](CCCNC(=N)N)NC(=O)[C@@H](CCCNC(=N)N)NC(=O)[C@H](CCCNC(=N)N)NC(=O)[C@H](Cc2ccc3ccccc3c2)NC(=O)[C@@H](Cc2ccccc2)NC1=O)C(N)=O)[C@@H](C)O)[C@@H](C)CC)C(C)(C)O
inhibition [21]: Active

CC(C)[C@H](NC(=O)[C@H](C)NC(=O)[C@@H](NC(=O)[C@@H]1CCCN1C(=O)[C@H](Cc1cnc[nH]1)NC(=O)[C@@H]1CCCN1C(=O)CNC(=O)COCCOCCNC(=O)CC[C@@H]1NC(=O)[C@@H](CCCNC(=N)N)NC(=O)[C@H](CCCNC(=N)N)NC(=O)[C@@H](CCCNC(=N)N)NC(=O)[C@H](CCCNC(=N)N)NC(=O)[C@H](Cc2ccc3ccccc3c2)NC(=O)[C@@H](Cc2ccccc2)NC1=O)C(C)C)C(=O)N[C@@H](C)C(=O)N[C@@H](C)C(=O)NCC(=O)N1CCC[C@H]1C(=O)N[C@@H](Cc1c[nH]cn1)C(=O)N[C@@H](CCC(=O)O)C(=O)N[C@@H](CCC(=O)O)C(=O)N[C@@H](CCCCN)C(N)=O
Activity [1]: inactive | Activity [2]: inactive | Activity [3]: inactive | inhibition [22]: inactive | Activity [5]: inactive | Activity [6]: inactive | Activity [7]: inactive | Activity [8]: inactive | inhibition [23]: Active | Activity [9]: inactive | Activity [10]: inactive | Activity [13]: inactive | Activity [15]: inactive | inhibition [24]: Active | Activity [17]: inactive | Activity [18]: inactive | Activity [19]: inactive
